We go through 6 compounds from patent publication US20240391902A1, “Crystalline Form of Compound” (Shenzhen Forward Pharmaceuticals Co., Limited, priority 2020, published 2024).

“Also recorded” adds a separate entry of the source.

A short description of data set [1]: Solid storage stability test. The settings on record: for chemical and physical stability after storage: solid/25° C./60% RH/open/1 week and/or solid/60° C./closed container/1 week. The data set is classed as physicochemical. The procedure:
Each amorphous salt solid was weighed (two 2 mg samples were weighed for purity testing after solid storage stability study, and one 10 mg sample was weighed for XRPD testing after solid storage stability study) and placed in a glass vial. In a 25° C./60% RH solid storage stability test, the amorphous salt solid was placed in a 25° C./60% RH constant temperature and humidity chamber, and placed in the dark for 1 week (i.e. “solid/25° C./60% RH/open/1 week”), and in a 60° C. solid storage stability test, the amorphous salt solid was sealed in an oven at 60° C. and heated for 1 week in the dark (i.e. “solid/60° C./closed container/1 week”). Then the sample was taken out for purity testing, crystal form detection and appearance observation, respectively.

Data set [2] can be described thus: Solid solubility test (2 h and 24 h). The data set is classed as physicochemical. The settings on record: Test ES4: FaSSIF-V1 (pH 6.5). Here is the method:
5 samples were weighed for each amorphous salt solid (equivalent to 20 mg of free base), and 10 mL of the following solvents were respectively added: 0.1N HCl solution (pH 1.0), 50 mM phosphate buffer (pH 4.5), FeSSIF-V1 (pH 5.0), FaSSIF-V1 (pH 6.5) and SGF (pH 2.0), and stirred at 37° C. for 2 h. The suspension was then centrifuged at 37° C., the supernatant was measured for solubility by HPLC, and the solid fraction was measured for XRPD. The target solubility was at least 2 mg (based on free base)/mL.

The nature of data set [3]: Drug absorption test in male Han-Wister rats. It counts as in vivo. Here is the method: Intravenous administration: Three healthy male Han-Wister rats having a body weight of 250-350 g were provided by Beijing Vital River Laboratory Animal Technology Co., Ltd. The above compound of Example 1 was administered intravenously at the doses (calculated based on free base) listed in Table 1 below, respectively. Before administration and 15 min, 0.5 h, 1.0 h, 2.0 h, 4.0 h, 8.0 h, 12 h, and 24 h after administration, jugular vein puncture was performed to take 0.05 mL of blood, plasma was separated and prepared, and the drug concentration in the plasma was measured by liquid chromatography-tandem mass spectrometry (LC-MS) to obtain a drug concentration-time curve.
Intragastric administration: Twelve healthy male Han-Wister rats having a body weight of 250-350 g were provided by Beijing Vital River Laboratory Animal Technology Co., Ltd. and randomly divided into 4 groups. The above compounds of Example 1, Example 2, Example 3 and Example 4 were administered intragastrically at the doses (calculated based on free base) listed in Table 2 below, respectively. Before administration and 15 min, 0.5 h, 1.0 h, 2.0 h, 4.0 h, 8.0 h, 12 h, and 24 h after administration, jugular vein puncture was performed to take 0.05 mL of blood, plasma was separated and prepared, and the drug concentration in the plasma was measured by liquid chromatography-tandem mass spectrometry (LC-MS) to obtain a drug concentration-time curve.

Data set [4] in a line: Solid solubility test (2 h and 24 h). It counts as physicochemical. The conditions noted are these: for Solubility measured at 24 h: 37° C., based on free base.
Data set [5] is described as follows: Chemical and physical stability of the salts at the end of the preparation. It counts as physicochemical. The text has this:
It is crucial for drug development whether the salts obtained as above have chemical and physical stability at the end of the preparation.

The next data set can be described thus: Dynamic solubility test. The settings on record: room temperature, feeding concentration 10 mg/mL, listed as compound of formula (I). The data set is classed as physicochemical. Here is the method:
Determination method: According to a feeding concentration of 10 mg/mL, about 50 mg of the sample were weighed and added to 5 mL of the corresponding medium, and the sample was dissolved by rotating at […] at room temperature.

Data set [6] relates to EGFR activating mutation (exon 19 deletion activating mutation, L858R activating mutation, T790M drug resistance mutation and exon 20 insertion mutation). The settings on record: disclosed in CN105461695B; cited from earlier work.
Where [7] appears, read: Test BS1: solid/25° C./60% RH/open/1 week.
Where [8] appears, read: Test BS2: solid/60° C./closed container/1 week.
Where [9] appears, read: intragastric administration, doses 80, 100, 93.2, 81.1 mg/kg for Example 1, 2, 3, 4 (calculated based on free base).

Take `C=CC(=O)Nc1cc(Nc2ncnc(-c3cn(C)c4ccccc34)n2)c(OC)cc1N(C)CCN(C)C` [Example 4]: in data set [1] (setting [7]), the Color result is “no color change”; the “Morphology (XRPD crystallinity)” value is “amorphous (FIG. 93),”; the “Morphology (agglomeration, appearance)” value is on record as “no agglomeration”. Also, in data set [1] (setting [8]), the Color entry was “no color change”; the “Morphology (XRPD crystallinity)” value is “amorphous (FIG. 93),”; the “Morphology (agglomeration, appearance)” value is recorded as “no agglomeration”. Also, the “chemical and physical stability after storage” value in data set [1] (listed as 1 eq. mesylate salt) is “chemically and physically stable”. Moreover, the “chemical and physical stability after storage” value in data set [1] (listed as amorphous 1 eq. mesylate salt) is “chemically and physically stable”. The “physical and chemical stability (in words)” value in data set [1] (solid/25° C./60% RH/open/1 week, listed as amorphous 1 eq. mesylate salt) was “good physical and chemical stability”. In addition, the “physical and chemical stability (in words)” value in data set [1] (solid/60° C./closed container/1 week, listed as amorphous 1 eq. mesylate salt) is “good physical and chemical stability”. For the same compound, in data set [2], the “pH measured at 2 h” value is listed as “(6.5)”. For the same compound, the “Solubility measured at 2 h” value in data set [2] (37° C., based on free base) was greater than 2 mg/mL. Besides, in data set [3] (setting [9]), the AUC0-t is 9703 ng·h/mL; the Cmax (in general, the peak of the concentration-time curve) is reported as 1376 ng/mL; the T1/2 is 6.17 h. In data set [3] (intragastric versus intravenous administration, doses 80, 100, 93.2, 81.1 mg/kg for Example 1, 2, 3, 4), the F is recorded as 26.8%. In data set [4] (Test ES3: FeSSIF-VI (pH 5.0)), the “pH measured at 24 h” value was “(5.0)” and the “Solubility measured at 24 h” value was greater than 2 mg/mL. In data set [4] (Test ES4: FaSSIF-VI (pH 6.5)), the “pH measured at 24 h” value is on record as “(6.6)” and the “Solubility measured at 24 h” value is listed as greater than 2 mg/mL.
As for `C=CC(=O)Nc1cc(Nc2ncnc(-c3cn(C)c4ccccc34)n2)c(OC)cc1N(C)CCN(C)C` [Example 12], the “chemical and physical stability at the end of the preparation” value in data set [5] (listed as amorphous sulfate salt) was “chemically stable; also recorded: physically unstable due to a certain hygroscopicity”.
Turning to `C=CC(=O)Nc1cc(Nc2ncnc(-c3cn(C)c4ccccc34)n2)c(OC)cc1N(C)CCN(C)C` [Example 13], the “chemical and physical stability at the end of the preparation” value in data set [5] (listed as amorphous 2 eq. p-tosylate salt) was “chemically stable; also recorded: physically unstable due to caking and fusion to a glassy state upon short exposure to environmental conditions”.
Regarding `C=CC(=O)Nc1cc(Nc2ncnc(-c3cn(C)c4ccccc34)n2)c(OC)cc1N(C)CCN(C)C` [Example 14], the “chemical and physical stability at the end of the preparation” value in data set [5] (listed as amorphous sulfosalicylate salt (Sample No. Y11526-25-FD13-1,4-dioxane)) is “chemically and physically stable”.
For the compound `C=CC(=O)Nc1cc(Nc2ncnc(-c3cn(C)c4ccccc34)n2)c(OC)cc1N(C)CCN(C)C` [Example 15], the “chemical and physical stability at the end of the preparation” value in data set [5] (listed as amorphous sulfosalicylate salt (Sample No. Y11526-25-FD12-1,4-dioxane)) is “chemically and physically stable”.
With `C=CC(=O)Nc1cc(Nc2ncnc(-c3cn(C)c4ccccc34)n2)c(OC)cc1N(C)CCN(C)C` [Example 21], the dynamic solubility in “Dynamic solubility test” (SGF, 0.5 h) is less than 1.0 mg/mL; in “Dynamic solubility test” (SGF, 1 h) it was less than 1.0 mg/mL; in “Dynamic solubility test” (SGF, 2 h) it was less than 1.0 mg/mL; in “Dynamic solubility test” (SGF, 4 h), less than 1.0 mg/mL; in “Dynamic solubility test” (SGF, 24 h) it was less than 1.0 mg/mL; in the data set “Dynamic solubility test” (water, 0.5 h), less than 1.0 mg/mL. In addition, the dynamic solubility was less than 1.0 mg/mL in the data set “Dynamic solubility test” (water, 1 h); less than 1.0 mg/mL in “Dynamic solubility test” (water, 2 h); less than 1.0 mg/mL in “Dynamic solubility test” (water, 4 h); less than 1.0 mg/mL in “Dynamic solubility test” (water, 24 h). Also, the “inhibitory activity against EGFR activating mutation compared with wild-type EGFR (WT EGFR)” value in data set [6] is on record as “significantly higher”.
